pEC50: −log10 of the molar value. Like-named read-outs stand apart in the source and are kept apart here.
How the values were obtained:
human OX2R = target: T1, human OX2R (Homo sapiens, UniProt O43614); assay: Calcium flux assay, OX2R agonistic activity
T1 sequence (O43614 1-444): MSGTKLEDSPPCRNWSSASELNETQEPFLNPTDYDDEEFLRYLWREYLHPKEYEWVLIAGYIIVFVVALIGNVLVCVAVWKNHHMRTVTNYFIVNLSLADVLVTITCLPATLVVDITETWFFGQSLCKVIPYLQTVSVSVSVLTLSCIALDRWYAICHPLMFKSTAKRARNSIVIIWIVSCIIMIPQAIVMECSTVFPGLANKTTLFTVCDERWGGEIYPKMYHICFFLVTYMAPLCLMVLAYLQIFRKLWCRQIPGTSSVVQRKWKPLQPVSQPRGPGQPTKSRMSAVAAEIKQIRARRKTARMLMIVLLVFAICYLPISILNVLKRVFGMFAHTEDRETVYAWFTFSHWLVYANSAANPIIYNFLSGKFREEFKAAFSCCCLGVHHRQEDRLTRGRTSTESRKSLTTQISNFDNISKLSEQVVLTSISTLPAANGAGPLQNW

human OX1R = target: T2, human OX1R (Homo sapiens, UniProt O43613); assay: Calcium flux assay, OX1R agonistic activity; type: cell-based; settings: CHO cells expressing human OX1R, 95% confidence intervals in brackets, duplicate measurements
T2 construct: expressed in transfected cells; host or cells: CHO-K1
T2 sequence (O43613 1-425): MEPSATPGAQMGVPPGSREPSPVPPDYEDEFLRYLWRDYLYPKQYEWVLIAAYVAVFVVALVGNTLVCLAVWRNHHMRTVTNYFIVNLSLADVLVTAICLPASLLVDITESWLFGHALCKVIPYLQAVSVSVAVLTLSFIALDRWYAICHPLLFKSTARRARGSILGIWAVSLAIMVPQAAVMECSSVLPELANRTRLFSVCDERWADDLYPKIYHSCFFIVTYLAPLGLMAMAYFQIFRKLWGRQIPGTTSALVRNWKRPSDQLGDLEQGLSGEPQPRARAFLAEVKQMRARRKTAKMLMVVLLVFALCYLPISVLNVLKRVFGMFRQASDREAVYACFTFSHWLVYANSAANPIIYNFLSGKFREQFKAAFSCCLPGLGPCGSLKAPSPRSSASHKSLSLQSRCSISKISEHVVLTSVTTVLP
Protocol: Calcium flux assay (in vitro agonistic activity of OX2R and OX1R)1 hOX1R/CHO -K1 cells and hOX2R/CHO-K1 cells suspended in Ham's F-12 medium (Fujifilm Wako Pure Chemical Co.) supplemented with 100 U/mL penicillin-streptomycin and 10% FBS […]
cells/well and in black-walled clear -bottomed 96-well plates (Corning) at 45000 cells/well, respectively. The plated cells were grown overnight at 37 °C in the presence of 5% CO2. The following day, the medium was removed, and the cells were incubated with assay buffer ( H BS S with 20mM HEPES, pH 7.4, and 0.1% fatty acid free BSA) containing 2.5 μg/mL Fluo- 4 AM […]
Laboratories), and 0.08% Pluronic F127 (Dojindo Laboratories) for 30 min at 37 °C in the presence of 5% CO2. After incubation, the cells were stimulated with test compounds in the assay buffer. Calcium mobilization was measured using an FDSS/μCELL (Hamamatsu Photonics […]
r epr esent the 0% and 100% responses, respectively.

[1] = target: multidrug resistance protein 1 (MDR-1) (Homo sapiens, UniProt P08183); assay: Transcellular transport study using human MDR1-expressing LLC-PK1 cells; settings: for MDR-1 ratio (directional transport ratio B to A/A to B): 10 μM test compound, 2 h
Protocol: Transcellular transport study using a t ransporter- exp ressi on syst em
Human MDR1-expressing LLC -PK1 cells were cultured as reported previously with minor
modifications. 2 T he transcellular transport study was performed as reported previously.2 In brief,
the cells were grown for 7 days in an HTS Transwell 96 -well permeable support (pore size, 0.4
μm; sur f ace ar ea, 0. 143 cm2) with a polyethylene ter ephthalate membr ane ( Cor ning Lif e Sciences,
T he cells wer e pr eincubated with M199
at 37 °C for 30 min. Subsequently, transcellular transport was initiated by the addition of M199
either to apical compartments (75 μ L) or to the basolateral compartments (250 μ L) containing 10
μM digoxin, 200 μM lucifer yellow as a marker for the monolayer tightness, and 10 μM test
compounds and then terminated by the removal of each assay plate after 2 h. The aliquots (25
μL) in the opposite compartments were mixed with acetonitrile containing alprenolol an d
diclofenac as an internal standard and then centrifuged. The compound concentrations in the
supernatant were measured by LC− MS/MS. The apparent permeability (Pap p ) of test compounds
in the receiver wells was deter mined, and the efflux ratio for the MDR1 membrane permeability
test was calculated using the following equation:
Efflux ratio = Papp,BtoA/Papp,AtoB
wher e Papp,AtoB is the apical-to-ba sal passive permeability−sur f ace ar ea pr oduct and P app,BtoA is the
basal-to -apical pas sive per meability−sur f ace ar ea pr oduct.

ICR mice = assay: Wakefulness time in ICR mice during the sleep phase (EEG/EMG); type: in vivo; settings: sleep phase (ZT5), 3 mg/kg subcutaneous, n = 8, P < 0.001 vs vehicle
Protocol: It has been reported that activation of the orexin system by intracerebroventricular injection of OX-A increases wakefulness in rodents.[20],[21] In this study, we assessed the effect of compound 16 on wakefulness time in ICR mice during the sleep phase based on the measurements of electroencephalogram and electromyogram.
Figure 5 Effect of compound 16 on wakefulness time in ICR mice during the sleep phase. Compound 16 at 3 mg/kg or vehicle was administered subcutaneously to ICR mice at zeitgeber time 5, and electroencephalograms and electromyograms were recorded. Analysis was performed with data collected during 3 h after drug administration. Data were presented as the mean + standard error of the mean (n = 8). ***P < 0.001, compared with the vehicle-treated mice (two-tailed paired t test).
Evaluation of wakefulness time m easu rem ent of compound 16 in m ice
I CR mice were obtained from CLEA Japan Inc. (Tokyo, Japan). M ice were housed in groups of 4 per cage in a light controlled room (12 h light/dark cycle with lights on at 07:00 h). Food and tap water were provided ad libitum . […] 1 Compound 16 at 3 mg/kg suspended in 0.5% methylcellulose saline was administered subcutaneously to mice at zeitgeber time 5 (ZT5) in a volume of 10 mL/kg body weight, and then EE G was recorded. […] The statistical significance between two groups was determined by paired t-test with significance set at P < 0.05. […]

[2] = Brain and plasma concentration after intraperitoneal administration in mice; type: in vivo, C57BL/6J mice; settings: 10 mg/kg ip; for concentration at 0.5 h / concentration at 1 h: n = 3
Protocol: Brain and plasma concentration of compound 16 was measured after intraperitoneal administration at 10 mg/kg in mice (Table 5).
Measurem ent of plasm a and brain concent rat ion of compound 16 in mice The aliquots of the brain homogenate were mixed with acetonitrile containing internal standard.
The mixtures were centrifuged. The supernatants were diluted with solvents for LC-MS / MS (mobile phase A: 10 mM ammonium formate/formic acid (100/0.2, v/v), mobile phase B: acetonitrile/formic acid (100/0.2, v/v)). The diluted solutions were injected into LC-MS / MS (API5000, AB Sciex, CA) equipped with Shimadzu Shim-pack XR-ODS (2.2 μm, 2.0 × 30 mm, Shimadzu Corporation, Japan) at 50 °C. Analyst sof twar e T M ( ver sio n 1.4.2) was used for data acquisition and processing.
Ethics Statement. The care and use of the animals and the experimental protocols used in this research were approved by the Experimental Animal Care and Use Committee of Takeda Phar maceutical Company Limited.

[3] = read-out: OX2R agonistic activity EC50, CHO cells expressing human OX2R, calcium flux, 95% confidence intervals in brackets, duplicate measurements

Row | pEC50 (human OX1R) | pEC50 (human OX2R; [3]) | MDR-1 ratio (directional transport ratio B to A/A to B) [1] | Structure (SMILES) | further results
1 | < 4.00 | – | 0.8 | CS(=O)(=O)N[C@H]1CCCN[C@H]1CO[C@H]1CC[C@@H](c2ccccc2)CC1 [compound 14] | –
2 | < 4.00 | 7.96 | 2.2 | CCC(=O)N1CCC[C@H](NS(C)(=O)=O)[C@@H]1CO[C@H]1CC[C@@H](c2ccccc2)CC1 [compound 15] | –
3 | < 4.00 | 8.26 | 0.8 | COC(=O)N1CCC[C@H](NS(C)(=O)=O)[C@@H]1CO[C@H]1CC[C@@H](c2ccccc2)CC1 [compound 16, methyl (2R,3S)-3-((methylsulfonyl)amino)-2-(((cis-4-phenylcyclohexyl)oxy)methyl)piperidine-1-carboxylate] | total wakefulness time during 3 h after administration (ICR mice): significantly increased; MDR-1 transport A to B ([1]; apical to basal): 169; half-life in mice ([2]; mice): short half-life; Kp at 0.5 h ([2]; mouse, brain/plasma, C57BL/6J mice, 0.5 h, read-out: brain-to-plasma concn ratio): 0.2; Kp at 1 h ([2]; mouse, brain/plasma, C57BL/6J mice, 1 h, read-out: brain-to-plasma concn ratio): 0.2; concentration at 0.5 h ([2]; mouse, brain, C57BL/6J mice, 0.5 h, read-out: brain concn): 183 ng/g; concentration at 1 h ([2]; mouse, brain, C57BL/6J mice, 1 h, read-out: brain concn): 63 ng/g; concentration at 0.5 h ([2]; mouse, plasma, C57BL/6J mice, 0.5 h, read-out: plasma concn): 880 ng/mL; concentration at 1 h ([2]; mouse, plasma, C57BL/6J mice, 1 h, read-out: plasma concn): 288 ng/mL
4 | < 4.00 | 7.57 | 0.7 | CCOC(=O)N1CCC[C@H](NS(C)(=O)=O)[C@@H]1CO[C@H]1CC[C@@H](c2ccccc2)CC1 [compound 17] | –
5 | 4.85 | – | 4.8 | CCNC(=O)N1CCC[C@H](NS(C)(=O)=O)[C@@H]1CO[C@H]1CC[C@@H](c2ccccc2)CC1 [compound 18] | –

Further lines, the compound ahead of its results:

Row | Structure (SMILES) | pEC50 (human OX1R) | pEC50 (human OX2R; [3]) | MDR-1 ratio (directional transport ratio B to A/A to B) [1] | further results
6 | CC(=O)N1CCC[C@H](NS(C)(=O)=O)[C@@H]1CO[C@H]1CC[C@@H](C)CC1 (relative stereo) [compound 12] | < 4.00 | – | – | pEC50 (human OX2R): 5.43
7 | CC(=O)N[C@H]1CCCN(C(C)=O)[C@H]1CO[C@H]1CC[C@@H](C(C)C)CC1 (stereo in doubt) [compound 11] | < 4.00 | – | – | pEC50 (human OX2R): < 4.52
8 | CCS(=O)(=O)NC1CCCN(C(C)=O)C1COC1CCC(C(C)C)CC1 (stereo not drawn) [compound 2] | < 4.00 | 6.24 | – | Emax (human OX2R; read-out: maximum response [Emax], OX2R agonism): 94%
9 | CCS(=O)(=O)N[C@H]1CCCN(C(C)=O)[C@H]1CO[C@H]1CC[C@@H](C(C)C)CC1 [compound 3] | < 4.00 | 6.57 | – | –
10 | CCS(=O)(=O)N[C@@H]1CCCN(C(C)=O)[C@H]1CO[C@H]1CC[C@@H](C(C)C)CC1 [compound 4] | < 4.00 | < 4.52 | – | –
11 | CCS(=O)(=O)N[C@H]1CCCN(C(C)=O)[C@H]1CO[C@H]1CC[C@H](C(C)C)CC1 [compound 5] | < 4.00 | < 4.52 | – | –
12 | CCS(=O)(=O)N[C@@H]1CCCN(C(C)=O)[C@H]1CO[C@H]1CC[C@H](C(C)C)CC1 [compound 6] | < 4.00 | < 4.52 | – | –
13 | CC(=O)N1CCC[C@H](NS(C)(=O)=O)[C@@H]1CO[C@H]1CC[C@@H](C(C)C)CC1 [compound 7] | < 4.00 | 6.48 | – | –
14 | CC(=O)N1CCC[C@H](NS(=O)(=O)C(C)C)[C@@H]1CO[C@H]1CC[C@@H](C(C)C)CC1 [compound 8] | < 4.00 | 6.03 | – | –
15 | CCCS(=O)(=O)N[C@H]1CCCN(C(C)=O)[C@H]1CO[C@H]1CC[C@@H](C(C)C)CC1 [compound 9] | < 4.00 | 5.60 | – | –
16 | CC(=O)N1CCC[C@H](N(C)S(C)(=O)=O)[C@@H]1CO[C@H]1CC[C@@H](C(C)C)CC1 [compound 10] | < 4.00 | < 4.52 | – | –
